Entries after “also recorded” stand apart in the source; their conditions may differ.
Key:
[1] = system: dogs with suspected chronic pancreatitis; assay: Serum canine pancreas-specific lipase (cPL/cPLI, Spec cPL) before and after treatment, clinical trial; type: in vivo, dog; details: for Change in serum cPL/cPLI, pre- vs post-treatment (Wilcoxon matched-pair): methanesulfonate
Description: Dogs were identified by screening current submissions to the Gastrointestinal Laboratory at Texas A&M indicative of pancreatitis (canine pancreas-specific lipase≧400 μg/L) using an immunoassay for measurement of canine pancreas-specific lipase in canine serum known as the spec CPL® Test (IDEXX, Laboratories). A number of potential study participants were directly referred to the investigator by veterinarians, based on positive pet-side SNAP cPL® Test (IDEXX Laboratories, Westbrook, Me., USA) results and concomitant clinical signs. After ascertaining individual suitability of a patient with the referring veterinarian, serum canine pancreas-specific lipase concentration, serum biochemistry profile, and complete blood count were evaluated or re-evaluated 12±4 days after collection of the initial sample submission to the Gastrointestinal Laboratory. Based on the assumption that consecutive canine pancreas-specific lipase elevations indicate chronic pancreatitis, enrollment was offered for patients with canine pancreas-specific lipase concentrations≧400 μg/L, serum triglyceride concentrations below 500 mg/dL, and no indication of hepatic, renal, or other organ disease. […] Owner consent was required prior to phlebotomy and for enrollment into the trial.
[…] […] Individual patients were medicated for between 21 to 31 days.
Blood samples were collected before beginning the treatment and after completion of the treatment period. Complete blood count (red blood cell count, hematocrit, mean corpuscular volume, mean corpuscular hemoglobin, mean corpuscular hemoglobin concentration, differential and absolute white blood cell count, red blood cell count, hemoglobin, platelet estimate, red blood cell morphology, white blood cell morphology, and hemoparasites) was evaluated at the Texas Veterinary Medical Diagnostic Laboratory (TVMDL). A serum chemistry profile with electrolytes (glucose, blood urea nitrogen, creatinine, calcium, phosphorus, albumin, total protein, total bilirubin, alkaline phosphatase, alanine amino transferase, aspartate amino transferase, γ-glutamyl transferase, cholesterol, triglycerides, globuline, sodium, potassium, and chloride) was performed on a SIRRUS analyzer (Stanbio, Boerne, Tex., USA). Serum concentrations of cPL (RI: 0-200 μg/L; Spec cPL® IDEXX Laboratories, Westbrook, Me., USA), cTLI (RI: 5.7-45.2 μg/L; Canine TLI DOUBLE ANTIBODY®, Siemens Healthcare Diagnostics, Los Angeles, Calif., USA), cobalamin (RI: 251-908 ng/L), and folate (RI: 7.7-24.4 μg/L; Immulite 2000®, Siemens Healthcare Diagnostics Inc., Deerfield, Ill., USA), canine specific C-reactive protein (RI: 0-7.6 mg/L, Tridelta Development Limited, Maynooth, CO. Kildare, Ireland), S100A12 (RI: 56-331 μg/L, Gastrointestinal Laboratory in-house radioimmunoassay), and TGF-β1 (RI: 38-72 ng/mL; Quantikine® ELISA, R&D Systems, Minneapolis, […]., USA) were performed at the Gastrointestinal Lab at Texas A&M University.
Additionally, samples that exceeded the working range of the Spec cPL assay were diluted and re-analyzed.
Pre-treatment and post-treatment results for all diagnostic tests were statistically analyzed using Prism 6 (GraphPad Software, La Jolla, Calif., USA). The D'Agostino-Pearson omnibus test was used to evaluate all datasets for Gaussian distribution. Groups were compared using a paired t-test for normally-distributed data sets and a Wilcoxon matched-pairs test when Gaussian distribution could not be assumed. Mean values and standard deviation are reported for data sets with Gaussian distribution. Median and minimum/maximum values are reported for data sets where Gaussian distribution could not be assumed. The significance threshold was set at p=0.05.

[2] = system: Beagle dogs; assay: Multiple-dose tolerance study, oral capsule 3 times a day for 14 days; type: in vivo, dog
Description: The following parameters and end points were evaluated in the multiple-dose phase of this study: clinical signs, body weights, body weight changes, food consumption, electrocardiography, clinical pathology parameters (hematology, clinical chemistry, and urinalysis), and gross necropsy findings.
3 male and 3 female Beagle dogs were received from Marshall BioResources, North Rose, N.Y. The animals were examined and weighed on the day following receipt. The rising-dose phase animals were 6 months old and weighed 7.5 kg and 8.3 kg at initiation of dosing. The multiple-dose phase animals were 7 months old and weighed 7.4 kg and 7.6 kg at initiation of dosing.
For the multiple-dose phase, the test article was administered to the appropriate animals 3 times a day in an oral capsule from Days 1 to 14. The doses were administered 8 hours±30 minutes apart. The dose amount for each animal was based on the most recent body weight measurement. The first day of dosing was designated as Day 1.
Cage side observations were performed once daily, beginning during Week −1 and throughout the dosing period. During the dosing period, these observations were performed 1 to 3 hours post the first daily dose. The animals were removed from the cage and a detailed clinical observation was performed weekly, beginning during Week −1. Each animal was weighed on the day of randomization and Days 1, 4, 8, 11, and 15. A fasted weight was recorded on the day of necropsy. Food consumption was quantitatively measured for each animal daily, starting Week −1, throughout the dosing period, except for on the day of scheduled euthanasia.
Electrocardiogram (ECG) measurements were obtained from all animals using leads I, II, III, aVR, aVL, and aVF and a chart speed of 50 mm/second. The ECG measurements were obtained once on Day −1 (pretreatment) and Day 14 (approximately 3 hours post the first daily dose). Only lead II was evaluated by a board-certified veterinary cardiologist.
Blood was collected by venipuncture of the jugular vein. Urine was collected overnight by cage pan drainage. After collection, samples were transferred to the clinical pathology laboratory for processing. The animals were fasted overnight prior to scheduled clinical pathology sample collections, but had access to water ad libitum. Samples were collected according to Table 10.
Multiple-dose phase animals surviving until scheduled euthanasia were weighed, samples for evaluation of clinical pathology parameters were collected as specified above, and the animals were euthanized by sodium pentobarbital injection, followed by exsanguination. Animals were fasted (overnight) before their scheduled necropsy.
Multiple-dose phase animals were subjected to a complete necropsy examination, which included evaluation of the carcass and musculoskeletal system; all external surfaces and orifices; cranial cavity and external surfaces of the brain; and thoracic, abdominal, and pelvic cavities with their associated organs and tissues. Necropsy examinations were conducted under the supervision of a board-certified veterinary pathologist.

[3] = system: dogs with suspected chronic pancreatitis; assay: Serum C-reactive protein before and after treatment, clinical trial; type: in vivo, dog; details: 8 mg/kg q 8 hrs, n=17
[4] = system: dogs; details: 10, 30 and 100 mg/kg/day, oral capsules, 30-day study; cited from earlier work
[5] = Day 15 vs pretest, 200 mg/kg/day, methanesulfonate, 200 mg/kg/day

Which “Serum cPL/cPLI concentration post-treatment (median)” value ([1]; 4 mg/kg q 8 hrs oral capsules, 21-31 days, n=12, pre-treatment median 501, post range 125-2,836, p=0.9697) does the source give for `CN(C)C(=O)COC(=O)Cc1ccc(OC(=O)c2ccc(NC(=N)N)cc2)cc1` [Camostat Mesilate, N,N-dimethylcarbamoylmethyl-4-(4-guanidinobenzoyloxy)phenylacetate methanesulfonate] here?
The value was 453 µg/L.

What about the “Change in serum cPL/cPLI, pre- vs post-treatment (Wilcoxon matched-pair)” value (“Change in serum cPL/cPLI” below) ([1]; 4 mg/kg q 8 hrs, n=12) of the same compound?
Its value is “no significant difference; also recorded: did not change significantly”.

What about the “Change in serum cPL/cPLI” value ([1]; 8 mg/kg q 8 hrs (24 mg/kg q d), n=17) of the same compound?
The value was “significant difference; also recorded: statistically significant change; also recorded: statistically significant decrease”.

What about the “Serum cPL/cPLI concentration post-treatment (median)” value ([1]; 8 mg/kg q 8 hrs oral capsules, 21-31 days, n=17, pre-treatment median 882, post range 193-2,580, p=0.0232) of the same compound?
The value was 633 µg/L.

And the “Serum cPL/cPLI concentration post-treatment (median)” value ([1]; all treated dogs combined, n=29, pre-treatment median 690, post range 125-2,836, p=0.0903 or 0.0562)?
Its value is 514 µg/L.

And the “Change in serum cPL/cPLI” value ([1]; all treated dogs combined, n=29, trend towards a decrease)?
The value was “no statistically significant difference”.

And the Survival ([2]; 200 mg/kg/day (66.7 mg/kg/dose 3 times a day), 14 days, 1 male and 1 female, methanesulfonate)?
The Survival was “No animals died; also recorded: All animals survived to scheduled euthanasia”.

What about the “Body weight, overall conclusion” value ([2]; 200 mg/kg/day, 14 days) of the same compound?
Its value is “body weight loss”.

What about the Food consumption ([2]; 200 mg/kg/day, 14 days) of the same compound?
Its Food consumption is “no notable changes”.

And the Gross necropsy findings ([2]; Day 15, 200 mg/kg/day)?
The Gross necropsy findings was “no gross necropsy findings”.

And the Hematology parameters [2, 5]?
Its Hematology parameters is “no toxicologically meaningful changes; also recorded: no notable changes”.

What about the Urinalysis parameters [2, 5] of the same compound?
Its Urinalysis parameters is “no toxicologically meaningful changes; also recorded: no notable changes”.

And the “High-dose level chosen from the tolerance study” value ([2]; dogs, oral, 3 times per day)?
Its value is 200 mg/kg/day.

What about the “Body weight change Days 1 to 15” value ([2]; female, 200 mg/kg/day, 14 days) of the same compound?
The value was −2.7%.

And the Clinical observations ([2]; female, 200 mg/kg/day, 14 days)?
The Clinical observations was “clear ocular discharge and single occurrences of vomitus and mucoid feces”.

And the “Clinical chemistry, potential test article-related changes” value ([2]; male and female, Day 15, 200 mg/kg/day, methanesulfonate, 200 mg/kg/day)?
Its value is “increased creatinine and γ-glutamyl transferase; also recorded: increases in creatinine and γ-glutamyl transferase”.

What about the “Body weight change Days 1 to 15” value ([2]; male, 200 mg/kg/day, 14 days) of the same compound?
The value was −9.2%.

What about the Clinical observations ([2]; male, 200 mg/kg/day, 14 days) of the same compound?
The Clinical observations was “thin appearance and a single occurrence of vomitus”.

What about the “Change in serum C-reactive protein, pre- vs post-treatment” value ([3]; methanesulfonate) of the same compound?
Its value is “no significant difference; also recorded: did not change significantly”.

What about the “Serum C-reactive protein concentration post-treatment (median)” value ([3]; pre-treatment median 0.1, post range 0.1-6.8, p=0.25) of the same compound?
The value was 0.1 mg/L.

And the Toxicity findings [4]?
The Toxicity findings was “no significant toxicities”.
